Laboratory results reported in publication PMC9102066, “Cloning and Functional Characterization of Dog OCT1 and OCT2: Another Step in Exploring Species Differences in Organic Cation Transporters” (International Journal of Molecular Sciences, 2022).
Structures can show the parent of a compound that is named as a salt. Where two headings read alike, the source gives them in different places.

How the values were obtained:
human OCT1 = biological target: T1, human OCT1 (Homo sapiens, UniProt O15245); test: Uptake in HEK293 cells stably overexpressing human OCT1; assay type: in vitro ADME; conditions: for CLint ± SEM, hOCT1: intrinsic clearance = vmax divided by KM for each experiment
T1 construct: expressed in transfected cells; host or cells: HEK293 (Flp-In system)
T1 sequence (O15245 1-554): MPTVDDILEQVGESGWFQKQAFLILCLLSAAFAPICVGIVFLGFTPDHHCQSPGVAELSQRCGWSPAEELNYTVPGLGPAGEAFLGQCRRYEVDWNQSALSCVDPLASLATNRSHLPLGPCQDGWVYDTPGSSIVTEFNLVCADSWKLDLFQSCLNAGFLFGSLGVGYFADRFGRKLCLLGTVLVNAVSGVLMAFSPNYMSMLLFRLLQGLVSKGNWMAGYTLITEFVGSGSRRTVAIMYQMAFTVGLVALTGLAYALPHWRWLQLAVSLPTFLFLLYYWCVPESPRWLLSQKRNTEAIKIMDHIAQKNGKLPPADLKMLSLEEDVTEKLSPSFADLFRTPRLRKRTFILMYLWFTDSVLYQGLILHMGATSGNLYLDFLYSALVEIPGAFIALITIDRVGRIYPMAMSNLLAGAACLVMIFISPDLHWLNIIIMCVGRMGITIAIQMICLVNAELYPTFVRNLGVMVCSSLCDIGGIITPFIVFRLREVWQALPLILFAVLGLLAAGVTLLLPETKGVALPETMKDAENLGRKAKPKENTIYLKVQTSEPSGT
From the text: (§1) Cells were passaged twice a week.
(§2) Intracellular substrate concentrations were quantified using LC-MS/MS.

dog OCT1 = test: Uptake in HEK293 cells stably overexpressing dog OCT1; conditions: for Km at 2 min: dog; for CLint ± SEM, dOCT1: intrinsic clearance = vmax divided by KM for each experiment; for vmax ± SEM, dOCT1: OCT1-mediated uptake, HEK293, 2 min, 37 °C, pH 7.4, control cells subtracted; for fold higher transport capacity by dog than mouse OCT1 / fold lower affinity by dog than mouse OCT1: dog OCT1 versus mouse OCT1
Protocol: The total uptake is shown for the overexpressing and control cells (left hand side). OCT1-mediated uptake (right hand side) was calculated by subtracting the uptake of control cells (pcDNA5) from the uptake of OCT1-overexpressing cells. The means and standard errors of the means are shown for at least three independent experiments.
For generation and characterization, see the Supplementary Methods, Figure S7, and [29, 47]. Cells were cultured in Dulbecco’s Modified Eagle’s Medium (DMEM) supplemented with 10% FBS, 100 U/mL penicillin, and 100 µg/mL streptomycin at 37 °C and 5% CO2. Cells were passaged twice a week.
At 48 h prior to the experiment, 6 × 10^5 cells were seeded per well in 12-well plates pre-coated with poly-D-lysine.
Cellular uptake experiments were performed at 37 °C and pH 7.4 using Hanks’ Buffered Salt Solution (HBSS) supplemented with 10 mM HEPES (referred to as HBSS+ in the following). Cells were washed with 1 mL pre-warmed (37 °C) HBSS+ and uptake was initiated by adding 400 µL of pre-warmed HBSS+ containing the substrate. Uptake was allowed for exactly 2 min and stopped by adding 2 mL ice-cold HBSS+. Cells were washed twice with 2 mL ice-cold HBSS+ then lysed with 80% acetonitrile supplemented with internal standard. The intracellularly accumulated substrate concentrations were measured using LC-MS/MS as described in the following and normalized to the amount of total protein in the samples as measured using the bicinchoninic acid assay.
Intracellular substrate concentrations were quantified using LC-MS/MS. […] The pellet was reconstituted with 200 µL 0.1% formic acid and between 5 and 10 µL was injected into the LC-MS/MS system (Table S2).
An API4000 QTRAP tandem mass spectrometer with ESI interface (AB SCIEX, Darmstadt, Germany) coupled to a Shimadzu Nexera X2 UHPLC system with LC 30AD pumps and SiL 30AC autosampler (Shimadzu, Duisburg, Germany) was used for analysis.
Intrinsic clearance CLint was calculated by dividing vmax by KM for each experiment. Kinetic parameters were compared between OCT1 orthologs using an ANOVA followed by Tukey’s honestly significant difference post hoc comparisons in SPSS Statistics version 28 (SPSS Inc., IBM, Chicago, IL, USA).

mouse OCT1 = biological target: T2, mouse OCT1 (Mus musculus, UniProt O08966); test: Uptake in HEK293 cells stably overexpressing mouse OCT1; assay type: in vitro ADME; conditions: intrinsic clearance = vmax divided by KM for each experiment
T2 construct: expressed in transfected cells; host or cells: HEK293 (Flp-In system)
T2 sequence (O08966 1-556): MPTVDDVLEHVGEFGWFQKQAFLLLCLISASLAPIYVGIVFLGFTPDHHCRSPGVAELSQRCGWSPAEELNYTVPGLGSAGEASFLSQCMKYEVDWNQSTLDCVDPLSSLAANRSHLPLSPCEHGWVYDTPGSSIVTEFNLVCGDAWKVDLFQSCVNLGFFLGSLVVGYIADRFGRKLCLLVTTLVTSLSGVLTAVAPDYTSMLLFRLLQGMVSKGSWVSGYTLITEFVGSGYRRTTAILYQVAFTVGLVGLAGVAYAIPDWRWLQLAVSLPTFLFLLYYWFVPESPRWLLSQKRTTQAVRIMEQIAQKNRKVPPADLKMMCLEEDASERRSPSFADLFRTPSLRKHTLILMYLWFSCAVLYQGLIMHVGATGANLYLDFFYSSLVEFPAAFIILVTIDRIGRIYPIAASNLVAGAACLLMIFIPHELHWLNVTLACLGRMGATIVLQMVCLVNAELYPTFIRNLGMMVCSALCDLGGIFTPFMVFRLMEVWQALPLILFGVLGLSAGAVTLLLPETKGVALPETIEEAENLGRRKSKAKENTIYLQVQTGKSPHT
From the text: as §1, §2

human OCT2 = biological target: T3, human OCT2 (Homo sapiens, UniProt O15244); test: Uptake in HEK293 cells stably overexpressing human OCT2; assay type: in vitro ADME; conditions: for CLint ± SEM, hOCT2: intrinsic clearance = vmax divided by KM for each experiment
T3 construct: expressed in transfected cells; host or cells: HEK293 (Flp-In system)
T3 sequence (O15244 1-555): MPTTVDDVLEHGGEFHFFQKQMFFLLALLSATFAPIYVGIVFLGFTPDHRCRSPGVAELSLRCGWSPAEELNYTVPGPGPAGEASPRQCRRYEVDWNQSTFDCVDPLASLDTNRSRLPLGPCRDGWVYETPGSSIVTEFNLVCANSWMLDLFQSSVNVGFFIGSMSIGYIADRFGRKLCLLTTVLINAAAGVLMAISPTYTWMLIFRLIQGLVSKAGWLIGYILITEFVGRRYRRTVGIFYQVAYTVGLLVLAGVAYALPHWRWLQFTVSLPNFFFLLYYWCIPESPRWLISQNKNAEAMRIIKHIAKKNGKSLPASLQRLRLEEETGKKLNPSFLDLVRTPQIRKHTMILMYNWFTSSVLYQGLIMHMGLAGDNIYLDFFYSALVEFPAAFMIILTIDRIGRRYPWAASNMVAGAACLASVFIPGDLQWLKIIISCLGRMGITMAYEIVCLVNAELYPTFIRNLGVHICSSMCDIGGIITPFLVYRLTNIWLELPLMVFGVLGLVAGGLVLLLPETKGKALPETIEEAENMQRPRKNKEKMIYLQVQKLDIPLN
From the text: as §1, §2

dog OCT2 = test: Uptake in HEK293 cells stably overexpressing dog OCT2; assay type: in vitro ADME; conditions: for vmax ± SEM, dOCT2 / Km at 2 min: OCT2-mediated uptake, HEK293, 2 min; for vmax ± SEM, dOCT2: 37 °C, pH 7.4, control cells subtracted; for Km at 2 min: dog, Michaelis–Menten fit, read-out: KM ± SEM, dOCT2; for CLint ± SEM, dOCT2: intrinsic clearance = vmax divided by KM for each experiment
From the text: as §1, §2

[1] = HEK293 cells stably overexpressing dog OCT1, pH 7.4

Compound	CLint ± SEM, hOCT1 (human OCT1)	Km at 2 min (dog OCT1; pH 7.4)	CLint ± SEM, dOCT1 (dog OCT1)	CLint ± SEM, mOCT1 (mouse OCT1)	CLint ± SEM, hOCT2 (human OCT2)	vmax ± SEM, dOCT2 (dog OCT2)	CLint ± SEM, dOCT2 (dog OCT2)	vmax ± SEM, dOCT1 (dog OCT1)	fold higher transport capacity by dog than mouse OCT1 (dog OCT1)	fold lower affinity by dog than mouse OCT1 (dog OCT1)	Km at 2 min (dog OCT1; [1])	further results
CC(Cc1ccc(O)cc1)NCC(O)c1cc(O)cc(O)c1 (stereo not shown) [Fenoterol, Fenoterol hydrochloride]	88.3 ± 3.85 µL × min^−1 × mg Protein^−1	16.8 ± 1.09 µM	80.7 ± 7.76 µL × min^−1 × mg Protein^−1	88.5 ± 15.5 µL × min^−1 × mg Protein^−1	28.0 ± 0.95 µL × min^−1 × mg Protein^−1	–	–	–	–	–	–	fold higher affinity (human OCT1 relative to dog OCT1, as worded in the discussion) (human OCT1; discussion wording, direction not spelled out): 14.3 fold; CLint ± SEM, hOCT1 (human OCT1; listed as fenoterol): 88.3 µL × min^−1 × mg Protein^−1; fold lower affinity (higher KM) by dog OCT1 than human OCT1 (dog OCT1; dog OCT1 versus human OCT1): 14.3 fold; CLint ± SEM, dOCT1 (dog OCT1; listed as fenoterol): 80.7 µL × min^−1 × mg Protein^−1; CLint ± SEM, mOCT1 (mouse OCT1; listed as fenoterol): 88.5 µL × min^−1 × mg Protein^−1
O=C(O[C@H]1C[C@H]2CC[C@@H](C1)[N+]21CCCC1)C(O)(c1ccccc1)c1ccccc1 [Trospium, trospium chloride]	117 ± 12.7 µL × min^−1 × mg Protein^−1	5.72 ± 0.3 µM	146 ± 10.3 µL × min^−1 × mg Protein^−1	180 ± 37.5 µL × min^−1 × mg Protein^−1	278 ± 40.5 µL × min^−1 × mg Protein^−1	224 ± 14.6 pmol × min^−1 × mg Protein^−1	106 ± 8.78 µL × min^−1 × mg Protein^−1	835 ± 64.9 pmol × min^−1 × mg Protein^−1	3.4 fold	4.4 fold	–	fold lower affinity by dog OCT2 than human OCT2 (dog OCT2; dog OCT2 versus human OCT2): 5.7 fold; Km at 2 min (dog OCT2; pH 7.4): 2.18 ± 0.27 µM
CN(C)C(=N)N=C(N)N [Metformin, metformin hydrochloride]	–	–	63.1 ± 12.0 µL × min^−1 × mg Protein^−1	38.7 ± 6.23 µL × min^−1 × mg Protein^−1	39.9 ± 5.27 µL × min^−1 × mg Protein^−1	21,578 ± 606 pmol × min^−1 × mg Protein^−1	59.2 ± 2.76 µL × min^−1 × mg Protein^−1	11,373 ± 714 pmol × min^−1 × mg Protein^−1	–	–	204 ± 41.8 µM	vmax ± SEM, hOCT1 (human OCT1; OCT1-mediated uptake, HEK293, 2 min, 37 °C, pH 7.4, control cells subtracted): 10,465 ± 1306 pmol × min^−1 × mg Protein^−1; Km at 2 min (human OCT1; human, HEK293 cells stably overexpressing human OCT1, pH 7.4, OCT1-mediated uptake, HEK293, 2 min, Michaelis–Menten fit, read-out: KM ± SEM, hOCT1): 1090 ± 297 µM; Km at 2 min (dog OCT2; HEK293 cells stably overexpressing dog OCT2, pH 7.4): 365 ± 11.5 µM; vmax ± SEM, hOCT2 (human OCT2; OCT2-mediated uptake, HEK293, 2 min, 37 °C, pH 7.4, control cells subtracted): 29,650 ± 1457 pmol × min^−1 × mg Protein^−1; Km at 2 min (human OCT2; human, HEK293 cells stably overexpressing human OCT2, pH 7.4, OCT2-mediated uptake, HEK293, 2 min, Michaelis–Menten fit, read-out: KM ± SEM, hOCT2): 766 ± 95.4 µM
CCCC[N+]1(C)[C@@H]2C[C@@H](OC(=O)[C@H](CO)c3ccccc3)C[C@H]1[C@@H]1O[C@@H]12 (stereo partly shown) [Butylscopolamine, butylscopolamine bromide]	84.4 ± 6.76 µL × min^−1 × mg Protein^−1	–	80.5 ± 12.3 µL × min^−1 × mg Protein^−1	131 ± 25.6 µL × min^−1 × mg Protein^−1	81.6 ± 2.16 µL × min^−1 × mg Protein^−1	–	–	1383 ± 112 pmol × min^−1 × mg Protein^−1	1.8 fold	2.9 fold	18.7 ± 3.32 µM	fold lower transport by dog OCT2 compared to human OCT2 (dog OCT2; dog OCT2 versus human OCT2): 10 fold; uptake by dog OCT2 cells compared to control cells, in words (dog OCT2; especially at low concentrations, data could not be fitted to the Michaelis–Menten equation): only a slight increase; difference in uptake kinetics between dog and human OCT1, in words (dog OCT1; dog OCT1 versus human OCT1): no significant differences; CLint ± SEM, dOCT1 (dog OCT1; listed as butylscopolamine): 122 µL × min^−1 × mg Protein^−1
